We go through 22 compounds from patent publication US20120214846A1, “HEXAHYDROCYCLOPENTYL[F]INDAZOLE PYRIDYL ETHANOLS AND DERIVATIVES THEREOF AS SELECTIVE GLUCOCORTICOID RECEPTOR MODULATORS” (MERCK SHARP & DOHME CORP, priority 2009, published 2012).

Molecules are shown by their SMILES.

The first experiment has as its target T1, GR (Homo sapiens, UniProt P04150).
T1 sequence (P04150 1-777): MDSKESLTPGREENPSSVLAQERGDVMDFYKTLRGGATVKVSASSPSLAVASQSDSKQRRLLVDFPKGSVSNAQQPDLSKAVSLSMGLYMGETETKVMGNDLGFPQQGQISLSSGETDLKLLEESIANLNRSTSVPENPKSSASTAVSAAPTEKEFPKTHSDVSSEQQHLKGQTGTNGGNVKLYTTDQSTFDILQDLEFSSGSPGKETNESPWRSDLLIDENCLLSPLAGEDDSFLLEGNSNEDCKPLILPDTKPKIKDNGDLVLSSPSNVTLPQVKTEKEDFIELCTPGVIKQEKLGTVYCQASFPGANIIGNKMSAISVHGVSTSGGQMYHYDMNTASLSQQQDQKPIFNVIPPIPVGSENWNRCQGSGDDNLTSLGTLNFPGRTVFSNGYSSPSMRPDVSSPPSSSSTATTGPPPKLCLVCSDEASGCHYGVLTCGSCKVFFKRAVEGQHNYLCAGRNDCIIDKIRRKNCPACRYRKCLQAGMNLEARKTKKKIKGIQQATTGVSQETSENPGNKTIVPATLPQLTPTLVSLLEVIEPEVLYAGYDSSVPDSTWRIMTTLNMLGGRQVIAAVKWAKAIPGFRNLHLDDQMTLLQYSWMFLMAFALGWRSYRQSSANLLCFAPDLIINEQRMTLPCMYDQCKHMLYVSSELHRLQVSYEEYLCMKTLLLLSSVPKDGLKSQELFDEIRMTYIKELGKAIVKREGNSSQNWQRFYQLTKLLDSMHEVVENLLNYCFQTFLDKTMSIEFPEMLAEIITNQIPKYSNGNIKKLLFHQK
Kind of experiment: GR Ligand Binding Assay (GR BIND), HeLa cell lysate, 3H-DEX. Further details: endogenous in cells; host or cells: HeLa (ATCC) cell lysate supernatant. To be noted: HeLa cell lysate, 3H-DEX; read-out: GR BIND Ki. As to the method:
Binding Buffer: TEGM (10 mM Tris-HCl, 1 mM EDTA, 10% glycerol, 1 mM beta-mecaptoethanol, 10 mM Sodium Molybdate, pH 7.2)
Phenol red-free Trypsin-EDTA is diluted in the same PBS 1:10. The cell layers are rinsed with 1× Trypsin, extra Trypsin is poured out, and the cell layers are incubated at 37° C. for ˜2 min. The flask is tapped and checked for signs of cell detachment. Once the cells begin to slide off the flask, the complete media is added. The cells are counted at this point, then diluted to the appropriate concentration and split into flasks or dishes for further culturing (Usually 1:3 to 1:6 dilution).
The cell pellet is washed twice with TEGM (10 mM Tris-HCl, 1 mM EDTA, 10% glycerol, 1 mM beta-mercaptoethanol, 10 mM Sodium Molybdate, pH 7.2). […] The cell suspension is snap frozen in liquid nitrogen or ethanol/dry ice bath and transferred to −80° C. freezer on dry ice. Before setting up the binding assay, the frozen samples are left on ice-water to just thaw (˜1 hr). Then the samples are centrifuged at 12,500 g to 20,000 g for 30 min at 4° C. The supernatant is used to set-up assay right away. If using 50 μL of supernatant, the test compound can be prepared in 50 μL of the TEGM buffer.
1×TEGM buffer is prepared, and the isotope-containing assay mixture is prepared in the following order: EtOH (2% final concentration in reaction), 3H-DEX (Amersham Biosciences) and 1×TEGM. [e.g. For 100 samples, 200 μL (100×2) of EtOH+4.25 μL of 1:10 3H-Dex stock+2300 μL (100×23) 1×TEGM]. The compound is serially diluted, e.g., if starting final conc. is 1 μM, and the compound is in 25 μL of solution, for duplicate samples, 75 μL of 4×1 μM solution is made and 3 μL of 100 μM is added to 72 μL of buffer, and 1:5 serial dilution.
25 μL of 3H-DEX (6 nM) trace and 25 μl, compound solution are first mixed together, followed by addition of 50 μL receptor solution. The reaction is gently mixed, spun briefly at about 200 rpm and incubated at 4° C. overnight. 100 μL of 50% HAP slurry is prepared and added to the incubated reaction which is then vortexed and incubated on ice for 5 to 10 minutes. The reaction mixture is vortexed twice more to resuspend HAP while incubating reaction. The samples in 96-well format are then washed in wash buffer using The FilterMate™ Universal Harvester plate washer (Packard). The washing process transfers HAP pellet containing ligand-bound expressed receptor to Unifilter-96 GF/B filter plate (Packard). The HAP pellet on the filter plate is incubated with 50 μL of MICROSCINT (Packard) scintillint for 30 minutes before being counted on the TopCount microscintillation counter (Packard). IC50s are calculated using DEX as a reference.
As for `Cc1cccnc1C(O)C[C@]1(O)CCC2=Cc3c(cnn3-c3ccc(F)cc3)C[C@@]21C` (single isomer, unassigned) [Example 1a], the Ki is 6.7 nM. On the same count and under the same terms, with `Cc1cccnc1C(O)C[C@]1(O)CCC2=Cc3c(cnn3-c3ccc(F)cc3)C[C@@]21C` (single isomer, unassigned) [Example 1b] the figure was 3.9 nM; with `C[C@]12Cc3cnn(-c4ccc(F)cc4)c3C=C1CC[C@@]2(O)CC(O)c1ccccn1` (single isomer, unassigned) [Example 2a], 11.7 nM. `C[C@]12Cc3cnn(-c4ccc(F)cc4)c3C=C1CC[C@@]2(O)CC(O)c1ccccn1` (single isomer, unassigned) [Example 2b]: the Ki amounted to 6.4 nM. The same measure, in the same setting: with `C[C@]12Cc3cnn(-c4ccc(F)cc4)c3C=C1CC[C@@]2(O)CC(O)c1cc(C(F)(F)F)ccn1` (single isomer, unassigned) [Example 5a] the figure was 2.6 nM.

As for `C[C@]12Cc3cnn(-c4ccc(F)cc4)c3C=C1CC[C@@]2(O)CC(O)c1cc(C(F)(F)F)ccn1` (single isomer, unassigned) [Example 5b], the Ki came to 4.3 nM. Consider `C[C@]12Cc3cnn(-c4ccc(F)cc4)c3C=C1CC[C@@]2(O)CC(O)c1ccc(F)cn1` (single isomer, unassigned) [Example 7a], for which the Ki is 10.8 nM.

On to `C[C@]12Cc3cnn(-c4ccc(F)cc4)c3C=C1CC[C@@]2(O)CC(O)c1ccc(F)cn1` (single isomer, unassigned) [Example 7b], for which the Ki was 4.8 nM. The same measure, in the same setting: with `C[C@]12Cc3cnn(-c4ccc(F)cc4)c3C=C1CC[C@@]2(O)CC(O)c1cc(Cl)ccn1` (single isomer, unassigned) [Example 8a] the figure was 5 nM; with `C[C@]12Cc3cnn(-c4ccc(F)cc4)c3C=C1CC[C@@]2(O)CC(O)c1cc(Cl)ccn1` (single isomer, unassigned) [Example 8b], 2.1 nM; with `C[C@]12Cc3cnn(-c4ccc(F)cc4)c3C=C1CC[C@@]2(O)CC(O)c1cc(Br)ccn1` (single isomer, unassigned) [Example 10a], 3.4 nM. On to `C[C@]12Cc3cnn(-c4ccc(F)cc4)c3C=C1CC[C@@]2(O)CC(O)c1cc(Br)ccn1` (single isomer, unassigned) [Example 10b], for which the Ki turned out to be 1.7 nM. Still for that read-out and setting: as for `COc1ccnc(C(O)C[C@]2(O)CCC3=Cc4c(cnn4-c4ccc(F)cc4)C[C@@]32C)c1` (stereo partly drawn) [Example 3, (4αS,5R)-1-(4-fluorophenyl)-5-[2-hydroxy-2-(4-methoxypyridin-2-yl)ethyl]-4α-methyl-1,4,4α,5,6,7-hexahydrocyclopenta[f]indazol-5-ol], the figure is 4.4 nM; as for `C[C@]12Cc3cnn(-c4ccc(F)cc4)c3C=C1CC[C@@]2(O)CC(O)c1ncccc1F` (stereo partly drawn) [Example 4, (4αS,5R)-1-(4-fluorophenyl)-5-[2-(3-fluoropyridin-2-yl)-2-hydroxyethyl]-4α-methyl-1,4,4α,5,6,7-hexahydrocyclopenta[f]indazol-5-ol], 7.2 nM; as for `C[C@]12Cc3cnn(-c4ccc(F)cc4)c3C=C1CC[C@@]2(O)CC(O)c1ccc(C(F)(F)F)cn1` (stereo partly drawn) [Example 6, (4αS,5R)-1-(4-fluorophenyl)-5-{2-hydroxy-2-[5-(trifluoromethyl)pyridin-2-yl]ethyl}-4α-methyl-1,4,4α,5,6,7-hexahydrocyclopenta[f]indazol-5-ol], 2.7 nM. Same read-out and setting: as for `C[C@]12Cc3cnn(-c4ccc(F)cc4)c3C=C1CC[C@@]2(O)CC(O)c1cc(C#N)ccn1` (stereo partly drawn) [Example 9, 2-{2-[(4αS,5R)-1-(4-fluorophenyl)-5-hydroxy-4α-methyl-1,4,4α,5,6,7-hexahydrocyclopenta[f]indazol-5-yl]-1-hydroxyethyl}pyridine-4-carbonitrile], the figure is 2.1 nM; as for `Cc1ccnc(C(O)C[C@]2(O)CCC3=Cc4c(cnn4-c4ccc(F)cc4)C[C@@]32C)c1` (stereo partly drawn) [Example 11, (4αS,5R)-1-(4-fluorophenyl)-5-[2-hydroxy-2-(4-methylpyridin-2-yl)ethyl]-4α-methyl-1,4,4α,5,6,7-hexahydrocyclopenta[f]indazol-5-ol], 3.9 nM.

Still in this experiment, the particulars now being: Table 4, literature compounds; read-out: GR BIND.
For the compound `C[C@]12Cc3cnn(-c4ccc(F)cc4)c3C=C1CC[C@@]2(O)C#Cc1ccccc1` [Ex. 1 WO 04/075840 A2, reference compound], the Ki worked out at 1.18 nM. Still for that read-out and setting: with `C[C@]12Cc3cnn(-c4ccc(F)cc4)c3C=C1CCC[C@@H]2[C@@H](O)Cc1ccccc1` [Ex. 22 WO 03/086294 A2, reference compound] the figure was 1.26 nM; with `C[C@]12Cc3cnn(-c4ccc(F)cc4)c3C=C1CCC[C@@H]2[C@@H](O)CCc1ccccc1` [Ex. 30 WO 03/086294 A2, reference compound], 1.21 nM. In the case of `C[C@]12Cc3cnn(-c4ccc(F)cc4)c3C=C1CCC[C@@H]2[C@@H](O)c1ccccc1` [Ex. 35 WO 03/86294 A2, reference compound], the Ki worked out at 1.17 nM.

`CO[C@@]1(CCc2ccccc2Cl)CCC2=Cc3c(cnn3-c3ccc(F)cc3)C[C@@]21C` [Ex. 103 WO 04/075840 A2, reference compound]: the Ki amounted to 0.23 nM.
